Experimental data taken from US20120202209A1, “CELL IMAGING METHOD FOR VIEWING MICRORNA BIOGENESIS IN THE CELLS” (Centre National de la Recherche Scientifique - CNRS, priority 2009, published 2012).

Tested on: Microprocessor (Drosha and DGCR8) at the C19MC locus
Experiment: RNA FISH combined with immunofluorescence: recruitment of the Microprocessor on pri-miRNAs near the C19MC transcription site
Format: cell-based, human
Conditions: cells treated with Actinomycin; data not shown
Description: To determine whether the Microprocessor can be visualized on the pri-miRNAs of the freshly synthesized C19MC locus, the inventors combined RNA FISH experiments with experiments for detection of proteins by immunofluorescence, according to the techniques familiar to a person skilled in the art. The inventors were thus able to detect the endogenous Drosha or DGCR8 proteins (FIG. 4). The inventors observed a co-localization of intense immunofluorescence signals for Drosha and
Recruitment depends on transcription and probably occurs via interaction with the RNAs, since there is no detection in cells treated with Actinomycin, in which C19MC-HG is not detected near the transcription site of C19MC (data not shown).

Question: Which results are given for Actinomycin?
Answer: detection of C19MC-HG near the transcription site of C19MC: not detected; detection of Microprocessor recruitment on pri-miRNAs: no detection
